Results reported in patent US20080194585A1, “Fungicidal Pyrazine Derivatives” (priority 2005, published 2008).
Marks after values point to notes of the source that are not given here.

Key:
[1] = test system: Phytophthora infestans; assay: whole plant or invertebrate; assay type: in vivo; conditions: 200 ppm
[2] = test system: Colletotrichum orbiculare; assay: Test B: cucumber Colletotrichum anthracnose, preventive spray on cucumber seedlings
[3] = test system: Botrytis cinerea; assay: Test E: tomato botrytis, preventive spray on tomato seedlings
[4] = test system: Plasmopara viticola; assay: Test D: grape downy mildew, spray after inoculation of grape seedlings; assay type: in vivo; conditions: 200 ppm
From the text: Upon removal, disease ratings were made. […] A dash (-) indicates no test results.

[5] = test system: Rhizoctonia oryzae; assay: Test G: turf brown patch, preventive spray on creeping bent grass seedlings
Method: (the causal agent of turf brown patch) and incubated in a saturated atmosphere at 27° C. for 24 h, and then moved to a growth chamber at 27° C. for 5 days, after which disease ratings were made.

[6] = test system: fusarium graminearium; assay: Test I: wheat head scab, preventive spray on wheat seedlings; conditions: 200 ppm
Method: (the causal agent of wheat head scab) and incubated in a saturated atmosphere at 20° C. for 72 h, and then moved to a growth chamber at 22° C. for 5 days, after which disease ratings were made.

[7] = test system: Septoria tritici; assay: Test J: wheat leaf blotch, preventive spray on wheat seedlings; assay type: in vivo
From the text: A dash (-) indicates no test results.

[8] = test system: Erysiphe graminis f. sp. tritici; assay: Test L: wheat powdery mildew, preventive spray on wheat seedlings
[9] = test system: Puccinia recondita f. sp. tritici; assay: Test K: wheat leaf rust, preventive spray on wheat seedlings
[10] = test system: Septoria nodorum; assay: Test H: wheat glum blotch, preventive spray on wheat seedlings
Method: (the causal agent of wheat glum blotch) and incubated in a saturated atmosphere at 20° C. for 48 h, and then moved to a growth chamber at 22° C. for 5 days, after which disease ratings were made.

[11] = test system: Sclerotinia sclerotiorum; assay: Test C: cucumber white mold, preventive spray on cucumber seedlings
[12] = test system: Pythium aphanidermatum; assay: Test A: bluegrass pythium blight, preventive spray on bluegrass seedlings; conditions: 200 ppm

| Compound | Test F disease control rating [1] | Test B disease control rating ([2]; 40 ppm (*)) | Test E disease control rating ([3]; 40 ppm (*)) | Test D disease control rating [4] | Test G disease control rating ([5]; 40 ppm (*)) | Test I disease control rating [6] | Test J disease control rating ([7]; 40 ppm (*)) | Test L disease control rating ([8]; 40 ppm (*)) | Test K disease control rating ([9]; 40 ppm (*)) | Test H disease control rating ([10]; 40 ppm (*)) | Test C disease control rating ([11]; 200 ppm) | Test A disease control rating [12] | Test B disease control rating ([2]; 200 ppm) | Test E disease control rating ([3]; 200 ppm) | Test G disease control rating ([5]; 200 ppm) | Test J disease control rating ([7]; 200 ppm) | Test L disease control rating ([8]; 200 ppm) | Test K disease control rating ([9]; 200 ppm) | Test H disease control rating ([10]; 200 ppm) | Test C disease control rating ([11]; 40 ppm (*)) |
| --- | --- | --- | --- | --- | --- | --- | --- | --- | --- | --- | --- | --- | --- | --- | --- | --- | --- | --- | --- | --- |
| CC(C)Cn1c(-c2ccc(C(C)(C)C)cc2)c(Cl)nc(-n2cncn2)c1=O [compound 75] | 0% | 0* % | 0* % | 0% | 0* % | 0% | 7* % | 0* % | 0* % | 0* % | 0% | 0% |  |  |  |  |  |  |  |  |
| CC(C)Cn1c(-c2ccc(C(F)(F)F)cc2)c(Cl)nc(-n2cncn2)c1=O [compound 76] | 21% | 0* % | 0* % | 0% | 0* % | 0% | 0* % | 0* % | 0* % | 0* % | 0% | 0% |  |  |  |  |  |  |  |  |
| CC(C)Cn1c(-c2ccc(OC(F)(F)F)cc2)c(Cl)nc(-n2cncn2)c1=O [compound 77] | 0% | 0* % | 0* % | 0% | 0* % | 0% | 0* % | 0* % | 0* % | 0* % | 0% | 0% |  |  |  |  |  |  |  |  |
| COC(=O)C(C)=NNc1nc(Cl)c(-c2c(F)cccc2F)n(CC(C)C)c1=O [compound 78] | 0% |  |  | 0% |  | 0% |  |  |  |  | 0% | 0% | 0% | 0% | 0% | 91% | 0% | 0% | 0% |  |
| Cc1ccc(-c2c(Cl)nc(-n3cccn3)c(=O)n2CC(C)C)c(C)c1 [compound 80] | 0% |  |  | 0% |  | 0% |  |  |  |  |  | 0% | 99% | 100% | 47% | 100% | 94% | 100% | 100% | 0* % |
| CCC(C)Cn1c(-c2c(F)cccc2F)c(Cl)nc(-n2ccc(C#N)n2)c1=O (stereo not drawn) [compound 81] | 0% | 0* % | 93* % | 0% | 31* % | 0% | 52* % | 0* % | 68* % | 0* % | 0% | 0% |  |  |  |  |  |  |  |  |
| CCC(C)Cn1c(-c2c(F)cccc2F)c(Cl)nc(-n2cccc2)c1=O (stereo not drawn) [compound 82] | 0% | 0* % | 0* % | 0% | 0* % | 0% | 5* % | 0* % | 68* % | 73* % | 0% | 0% |  |  |  |  |  |  |  |  |
| COc1cc(OC)c(-c2c(Cl)nc(-n3cccn3)c(=O)n2CC(C)C)c(OC)c1 [compound 86] | 0% |  |  | 0% |  | 23% |  |  |  |  | 4% | 0% | 0% | 0% | 0% | 0% | 0% | 0% | 0% |  |
| CC(C)Cn1c(-c2c(F)cccc2C(F)(F)F)c(Cl)nc(-n2cccn2)c1=O [compound 87] | 0% |  |  | 0% |  | 18% |  |  |  |  | 95% | 0% | 100% | 100% | 99% | 74% | 100% | 100% | 100% |  |
| CC(C)Cn1c(-c2ccc3c(c2)OCO3)c(Cl)nc(-n2cccn2)c1=O [compound 88] | 24% |  |  | 0% |  | 0% |  |  |  |  | 99% | 0% | 52% | 100% | 16% | 100% | 0% | 97% | 99% |  |
| O=c1c(-n2cccn2)nc(Cl)c(-c2c(F)cccc2F)n1CC1CCCO1 (stereo not drawn) [compound 91] | 0% | 0* % | 92* % | 0% | 0* % | 0% | 93* % | 0* % | 0* % | 33* % | 0% | 0% |  |  |  |  |  |  |  |  |
| O=c1c(-n2cncn2)nc(Cl)c(-c2c(F)cccc2F)n1CC1CCCO1 (stereo not drawn) [compound 92] | 0% | 0* % | 0* % | 0% | 0* % | 0% | 7* % | 0* % | 0* % | 0* % | 0% | 0% |  |  |  |  |  |  |  |  |
| COCC(C)n1c(-c2c(F)cccc2F)c(Cl)nc(-n2cccn2)c1=O (stereo not drawn) [compound 93] | 60% | 0* % | 79* % | 0% | 70* % | 0% | 83* % | 97* % | 98* % | 96* % | 0% | 0% |  |  |  |  |  |  |  |  |
